Data as given in patent US5736510A, “Antibiotics 10381v, w, x,y, z1, z2, pre-b and t” (priority 1996, dated 1998).
Like-named read-outs stand apart in the source and are kept apart here.

Key:
Format in all cases: cell-based
[1] = tested on: C. perfringens; set-up: Minimal Inhibitory Concentration (bioactivity data): unit not given here; conditions: Table IV (separate study)
[2] = tested on: S. faecalis; conditions: Table IV (separate study)
[3] = tested on: S. bovis; conditions: strain JB1; Table IV (separate study)
[4] = tested on: B. fragilis; conditions: strain UC9370; Table IV (separate study)
[5] = tested on: B. thetaiotaomicron; conditions: strain UC9014; Table IV (separate study)
Procedure: (§1) The assay measures the ability of a compound to inhibit the growth of certain types of anaerobic bacteria which normally inhabit the gut of poultry, swine or cattle.
(§2) Two mg/ml solutions of the drugs to be tested are made in 10% v/v ethanol/water. This stock is then diluted to one mg per ml and then further diluted through a series of ten-two fold dilutions. At each concentration an aliquot is placed in a sterile petri plate. Nine volumes of molten agar are then added to each plate, mixed and allowed to harden at room temperature. These plates are then transferred to a Coy chamber and allowed to dry and equilibrate with the oxygen free atmosphere.
(§3) Organisms used for MIC testing are inoculated into broth media, and incubated 18-24 h at 39° C. prior to use. The cultures are then diluted to equal the turbidity of a 0.5 MacFarland barium sulfate standard, except for the porcine isolates P108-3C1, P105-1C3 and P105-1C4 which are diluted 1:1. All inoculations and dilutions are performed in the anaerobic chamber using broth media and syringe transfer through the butyl robber stoppers.
(§4) Freshly prepared and diluted cultures are loaded into the wells of a Steers replicator device. This apparatus can dispense ca 10 μl of each of 32 cultures onto the surface of the preincubated agar plates. One hour after the inoculation, the inoculum will have been absorbed and the plates are inverted and incubated at 38°-39° C. for 48 h. Plates are then removed from the chamber and the MIC for the test compounds determined. MIC's are reported as the lowest concentration of a compound which prevented detectable growth of a test organism on the agar plates. […] Thus, each set of test plates yields individual MIC values for each of the 32 test organisms.

[6] = tested on: E. lentum; conditions: strain L-34; Table IV (separate study)
[7] = tested on: B. fibrisolvens; conditions: Table IV (separate study)
[8] = tested on: M. elsdenii; conditions: strain B159; Table IV (separate study)
[9] = tested on: L. multiparus; conditions: strain 40; Table IV (separate study)
[10] = tested on: S. ruminantium; conditions: Table IV (separate study)
[11] = tested on: R. amylophilus; conditions: strain H18; Table IV (separate study)
[12] = tested on: R. flavefaciens; conditions: Table IV (separate study)
[13] = tested on: E. ruminantium; conditions: strain GA195; Table IV (separate study)
[14] = tested on: P. ruminicola; conditions: strain 118B; Table IV (separate study)
[15] = tested on: F. necrophorum; conditions: Table IV (separate study)
[16] = tested on: S. hyodysenteriae; set-up: unit not given here; conditions: Table IV (separate study)
Procedure: as §1, §2, §3, §4

[17] = tested on: anaerobic bacteria which normally inhabit the gut of poultry, swine or cattle; assay: in vitro MIC assay, overall comparison of components across the test organisms; conditions: conclusion from Tables III and IV
Procedure: as §1, §2, §3, §4

| SMILES | Minimal Inhibitory Concentration (bioactivity data) ([1]; strain A82-1) | Minimal Inhibitory Concentration (bioactivity data) ([1]; strain A83-3) | Minimal Inhibitory Concentration (bioactivity data) ([1]; strain A83-RKP) | Minimal Inhibitory Concentration (bioactivity data) ([1]; strain CCS2-09) | Minimal Inhibitory Concentration (bioactivity data) ([1]; strain P1051C3) | Minimal Inhibitory Concentration (bioactivity data) ([1]; strain P1083C1) | Minimal Inhibitory Concentration (bioactivity data) ([1]; strain RF1B04) | Minimal Inhibitory Concentration (bioactivity data) ([1]; strain UC9452) | Minimal Inhibitory Concentration (bioactivity data) ([2]; strain 71A01) | Minimal Inhibitory Concentration (bioactivity data) ([2]; strain CCS1-03) | Minimal Inhibitory Concentration (bioactivity data) ([2]; strain P1051C4) | Minimal Inhibitory Concentration (bioactivity data) [3] | Minimal Inhibitory Concentration (bioactivity data) [4] | Minimal Inhibitory Concentration (bioactivity data) [5] | Minimal Inhibitory Concentration (bioactivity data) [6] | Minimal Inhibitory Concentration (bioactivity data) ([7]; strain 49) | Minimal Inhibitory Concentration (bioactivity data) ([7]; strain D1) | Minimal Inhibitory Concentration (bioactivity data) [8] | Minimal Inhibitory Concentration (bioactivity data) [9] | Minimal Inhibitory Concentration (bioactivity data) ([10]; strain GA31) | also measured |
| --- | --- | --- | --- | --- | --- | --- | --- | --- | --- | --- | --- | --- | --- | --- | --- | --- | --- | --- | --- | --- | --- |
| C=C(NC(=O)c1ccc2c(n1)-c1nc(oc1C)C(C)NC(=O)c1csc(n1)C(C)NC(=O)c1nc(oc1C)CNC(=O)C(C(C)C)NC(=O)c1csc-2n1)C(N)=O (centres unmarked) [Antibiotic 10381w] | > 100 | 12.5 | > 100 | > 100 | > 100 | > 100 | 100 | > 100 | > 100 | > 100 | > 100 | > 100 | > 100 | > 100 | 25.0 | > 100 | > 100 | > 100 | > 100 | 1.6 | Minimal Inhibitory Concentration (bioactivity data) ([10]; strain GA192): 12.5; Minimal Inhibitory Concentration (bioactivity data) [11]: > 100; Minimal Inhibitory Concentration (bioactivity data) ([12]; strain C94): 100; Minimal Inhibitory Concentration (bioactivity data) ([12]; strain FD1): > 100; Minimal Inhibitory Concentration (bioactivity data) [13]: 25; Minimal Inhibitory Concentration (bioactivity data) [14]: < 0.2; Minimal Inhibitory Concentration (bioactivity data) ([15]; strain FN4070): > 100; Minimal Inhibitory Concentration (bioactivity data) ([15]; strain FN5052): > 100; Minimal Inhibitory Concentration (bioactivity data) ([16]; strain 16-4): > 100; Minimal Inhibitory Concentration (bioactivity data) ([16]; strain B204): > 100; in vitro activity ranking of the individual components [17]: considerably less active |
| C=C1NC(=O)c2nc(oc2C)C(=CC)NC(=O)c2csc(n2)C(OC)NC(=O)c2nc(oc2C)C(=CC(C)O)NC(=O)C(C(C)O)NC(=O)c2csc(n2)-c2ccc(C(N)=O)nc2-c2coc(n2)C(=C)NC1=O (centres unmarked) [Antibiotic 10381v] | > 100 | 0.8 | 1.6 | > 100 | 100 | 100 | 0.8 | 6.3 | > 100 | > 100 | > 100 | > 100 | > 100 | > 100 | 25.0 | 50.0 | 25.0 | > 100 | > 100 | 25.0 | Minimal Inhibitory Concentration (bioactivity data) ([10]; strain GA192): 100; Minimal Inhibitory Concentration (bioactivity data) [11]: 3.1; Minimal Inhibitory Concentration (bioactivity data) ([12]; strain C94): 25.0; Minimal Inhibitory Concentration (bioactivity data) ([12]; strain FD1): 25.0; Minimal Inhibitory Concentration (bioactivity data) [13]: 12.5; Minimal Inhibitory Concentration (bioactivity data) [14]: < 0.2; Minimal Inhibitory Concentration (bioactivity data) ([15]; strain FN4070): 100; Minimal Inhibitory Concentration (bioactivity data) ([15]; strain FN5052): > 100; Minimal Inhibitory Concentration (bioactivity data) ([16]; strain 16-4): > 100; Minimal Inhibitory Concentration (bioactivity data) ([16]; strain B204): > 100; in vitro activity ranking of the individual components [17]: considerably less active |
| C=C(NC(=O)C(=C)NC(=O)C(=C)NC(=O)c1ccc2c(n1)-c1coc(n1)C(=C)NC(=O)C(=C)NC(=O)c1nc(oc1C)C(=CC)NC(=O)c1csc(n1)CNC(=O)c1nc(oc1C)C(=CC(C)O)NC(=O)C(C(C)O)NC(=O)c1csc-2n1)C(N)=O (centres unmarked) [Antibiotic 10381pre-b] | > 100 | 1.6 | 1.6 | 50.0 | > 100 | 25.0 | 1.6 | 25.0 | > 100 | > 100 | > 100 | 50.0 | > 100 | > 100 | < 0.2 | 50.0 | 12.5 | > 100 | > 100 | 50.0 | Minimal Inhibitory Concentration (bioactivity data) ([10]; strain GA192): 6.3; Minimal Inhibitory Concentration (bioactivity data) [11]: > 100; Minimal Inhibitory Concentration (bioactivity data) ([12]; strain C94): 25.0; Minimal Inhibitory Concentration (bioactivity data) ([12]; strain FD1): 25.0; Minimal Inhibitory Concentration (bioactivity data) [14]: < 0.2; Minimal Inhibitory Concentration (bioactivity data) ([15]; strain FN4070): > 100; Minimal Inhibitory Concentration (bioactivity data) ([15]; strain FN5052): > 100; Minimal Inhibitory Concentration (bioactivity data) ([16]; strain 16-4): > 100; Minimal Inhibitory Concentration (bioactivity data) ([16]; strain B204): > 100; in vitro activity ranking of the individual components [17]: considerably less active |
